Measurements published in article PMC8388125, “Kinetic and Structural Characterization of the Self-Labeling Protein Tags HaloTag7, SNAP-tag, and CLIP-tag” (Biochemistry, 2021).
Changes are numbered by the printed parent chain.

Tests used:
SNAP^C145A [1] = molecular target: T1, SNAP^C145A (Homo sapiens, UniProt P16455, A127T/A154D/C145A/C150Q/C62A/G131K/G132T/G153L/K125A/K32I/L33F/M134L/N157G/Q115S/Q116H/R128A/R135S/S151G/S152D/S159E); experiment: Affinity of SNAP^C145A for nonfluorescent substrates via FP competition assay against CP-TMR; format: binding
T1 construct: made in house; host or cells: E. coli BL21(DE3)-pLysS
T1 sequence (P16455 1-182 K32I/L33F/C62A/Q115S/Q116H/K125A/A127T/R128A/G131K/G132T/M134L/R135S/C145A/C150Q/S151G/S152D/G153L/A154D/N157G/S159E limits assumed): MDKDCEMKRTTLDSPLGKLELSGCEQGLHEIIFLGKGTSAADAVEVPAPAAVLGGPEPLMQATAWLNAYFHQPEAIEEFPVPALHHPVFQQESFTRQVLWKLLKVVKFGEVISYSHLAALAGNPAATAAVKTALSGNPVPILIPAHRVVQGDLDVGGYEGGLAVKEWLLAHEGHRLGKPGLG
Experimental: Binding affinities of SNAP^C145A for BG, CP, BG-Ac, CP-Ac, and BC-Ac were obtained as previously described for HT7 by titrating 5 μM protein and 50 nM CP-TMR against nonfluorescent substrate concentrations ranging from 150 nM to 1.5 mM. Experimental conditions and data analysis were identical despite the fact that 1 mM DTT was added to the buffer and the assay was performed at room temperature.

CLIP-tag (CLIP) = molecular target: T2, CLIP-tag (CLIP) (Homo sapiens, UniProt P16455, A121V/A127T/A154D/C150Q/C62A/G131N/G132T/G153S/K125A/K32I/L33F/M134L/M60I/N157P/Q115S/Q116H/R128A/R135D/S151G/S152D/S159L/Y114E); experiment: CLIP labeling kinetics via microplate reader (FP over time); format: biochemical; conditions: CLIP cross-reactivity
T2 construct: made in house; host or cells: E. coli BL21(DE3)-pLysS
T2 sequence (P16455 1-182 K32I/L33F/M60I/C62A/Y114E/Q115S/Q116H/A121V/K125A/A127T/R128A/G131N/G132T/M134L/R135D/C150Q/S151G/S152D/G153S/A154D/N157P/S159L limits assumed): T1 sequence (P16455 1-182 K32I/L33F/C62A/Q115S/Q116H/K125A/A127T/R128A/G131K/G132T/M134L/R135S/C145A/C150Q/S151G/S152D/G153L/A154D/N157G/S159E limits assumed) with M60I, Y114E, A121V, K131N, S135D, A145C, L153S, G157P, E159L
Experimental: (§1) Labeling kinetics of SNAP and CLIP substrates were measured by recording FP over time using a microplate reader in a manner analogous to that of HT7 labeling kinetics described above with the following changes. The fluorescent substrate concentration was fixed to 20 nM, and protein concentrations were varied from 15 to 900 nM. Measurements were performed in SNAP-FP buffer.
(§2) Kinetic data from microplate reader assays were fitted to a simplified kinetic model (eq 13) described by differential eqs 14–16 using DynaFit. The dead time of the measurements and baseline FP value were put in as fixed parameters. Standard deviations (normal distribution verified) and confidence intervals of fitted parameters were estimated with the Monte Carlo method with standard settings (N = 1000, 5% worst fits discarded). In the case of BG, CP, and BC kinetics, the substrate concentration was fitted by DynaFit to rule out quantification errors of the BG, CP, or BC fluorophores. Accurate fitting of the concentration was ensured by including conditions under which protein is limiting and no maximum FP value was reached.

SNAP-tag (SNAP) [2] = molecular target: T3, SNAP-tag (SNAP) (Homo sapiens, UniProt P16455, A127T/A154D/C150Q/C62A/G131K/G132T/G153L/K125A/K32I/L33F/M134L/N157G/Q115S/Q116H/R128A/R135S/S151G/S152D/S159E); experiment: SNAP labeling kinetics via stopped flow (fluorescence anisotropy); format: biochemical; conditions: model 2
T3 construct: made in house; host or cells: E. coli BL21(DE3)-pLysS
T3 sequence (P16455 1-182 K32I/L33F/C62A/Q115S/Q116H/K125A/A127T/R128A/G131K/G132T/M134L/R135S/C150Q/S151G/S152D/G153L/A154D/N157G/S159E limits assumed): T1 sequence (P16455 1-182 K32I/L33F/C62A/Q115S/Q116H/K125A/A127T/R128A/G131K/G132T/M134L/R135S/C145A/C150Q/S151G/S152D/G153L/A154D/N157G/S159E limits assumed) with A145C
Experimental: Labeling kinetics of SNAP with BG-TMR were measured via stopped-flow in a manner analogous to that for HT7 kinetics described above; however, the final substrate concentration was fixed at 2 μM, and the protein concentration was varied from 1.875 to 50 μM. The activity buffer was supplemented with 1 mM DTT.
Kinetic stopped-flow data were preprocessed using a custom R script.[36],[37] Recorded pretrigger time points were removed, and time points were adjusted to start at time zero. Values from replicates were averaged. The anisotropy of the free dye was calculated by averaging anisotropy values of the baseline measurements. Preprocessed data were fitted to a kinetic model (eqs 5 and 6) described by differential eqs 7–10 using the DynaFit software.[38] The anisotropy of the free dye and the mixing delay of the stopped-flow machine were set as fixed offset and delay parameters in DynaFit. It was assumed that the protein substrate complex and the reacted product are contributing equally to the anisotropy signal. […] Standard deviations (normal distribution verified) and confidence intervals of fitted parameters were estimated with the Monte Carlo method[39] with standard settings (N = 1000, 5% worst fits discarded). In the case of SNAP kinetics with BG-TMR, the substrate concentration was fitted by DynaFit to rule out quantification errors of the BG-quenched fluorophore. Accurate fitting of the concentration was ensured by including conditions in which protein is limiting and no maximum FP value was reached.

SNAP-tag (SNAP) [3] = molecular target: T3, SNAP-tag (SNAP); experiment: SNAP labeling kinetics via microplate reader (FP over time); format: biochemical; conditions: SNAP, plate reader, kinetic model 1
Experimental: as §1, §2

SNAP^C145A [4] = molecular target: T1, SNAP^C145A; experiment: Affinity of SNAP^C145A for BG and CP fluorescent substrates by fluorescence polarization; format: binding
Experimental: Binding affinities of SNAP^C145A and SNAPf^C145A for BG-Alexa488, CP-Alexa488, BG-fluorescein, CP-fluorescein, BG-MAP555, BG-JF549, BG-TMR(6), BG-TMR(5), CP-TMR, BG-CPY(6), BG-CPY(5), CP-CPY, BG-SiR, CP-SiR, BG-JF646, BG-Atto565, BG-Atto590, BG-sulfo-Cy3, BG-Cy3, BG-sulfo-Cy5, and BG-Cy5 were determined by fluorescence polarization in a manner analogous to that for HT7 affinities for CA substrates described above with the following changes. Fluorescent substrates were titrated at a final concentration of 50 nM against protein concentrations ranging from 0 to 250 μM at room temperature using 0.1 g/L BSA and 1 mM DTT (SNAP-FP buffer). The FP value of each dye fully reacted with the native SNAP/SNAPf was used to improve fitting of the upper plateau of the curves by adding an extra data point at a protein concentration of 0.005 M.

[5] = molecular target: T4, hAGT (human O^6-alkylguanine-DNA alkyltransferase) (Homo sapiens, UniProt P16455); experiment: hAGT labeling kinetics via microplate reader (FP over time); format: biochemical
T4 construct: StrepTag-II (N); enterokinase cleavage site (N); His10 (C); made in house; host or cells: E. coli BL21(DE3)-pLysS
T4 sequence (P16455 1-207): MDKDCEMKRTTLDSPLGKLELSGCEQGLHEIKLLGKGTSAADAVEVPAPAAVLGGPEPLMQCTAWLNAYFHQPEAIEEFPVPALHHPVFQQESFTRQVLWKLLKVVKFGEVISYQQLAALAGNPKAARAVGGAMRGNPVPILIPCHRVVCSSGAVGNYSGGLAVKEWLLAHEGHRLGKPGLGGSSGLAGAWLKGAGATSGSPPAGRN
Experimental: as §1, §2

CC(=O)NCc1ccc(COc2nccc(N)n2)cc1 [BC-Ac]
times lower affinity than for BG-Ac (SNAP^C145A [1]): 5 times
Kd (SNAP^C145A [1]; FP competition against CP-TMR, room temperature): 416 µM

CN(C)c1ccc2c(-c3cc(C(=O)NCc4ccc(COc5nc(N)nc6[nH]cnc56)cc4)ccc3C(=O)[O-])c3ccc(=[N+](C)C)cc-3oc2c1 [BG-TMR]
times slower reaction of CLIP than with BC-TMR (CLIP-tag (CLIP)): 100 times
k2 (± S.D.) (SNAP-tag (SNAP) [2]): 1.24 (± 0.02) s-1
k-1 (± S.D.) (SNAP-tag (SNAP) [2]): 1.02 (± 0.03) s-1
kapp (value ± standard deviation) (SNAP-tag (SNAP) [3]): (4.29 ± 0.01) × 10^5 M^–1 s^–1
fold lower Kd^C145A compared to Kd calculated from stopped-flow experiments using active SNAP (SNAP^C145A [4]; SNAP^C145A vs active SNAP): 3 fold
Kd (SNAP^C145A [4]; SNAP^C145A, fluorescence polarization, room temperature): 0.68 µM
times slower labeling of hAGT than of SNAP ([5]; hAGT vs SNAP): 130 times
kapp (value ± standard deviation) ([5]; hAGT, plate reader, model 1): (3.38 ± 0.01) × 10^3 M^–1 s^–1
